Data taken from the supplement of paper PMC11061612.

Experiments:
Prexasertib = compound: COc1cccc(OCCCN)c1-c1cc(Nc2cnc(C#N)cn2)n[nH]1 [Prexasertib]; conditions: max 1 µM
Method in brief: (§1)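 Cancer cell lines in 1536-well plates (7.5 μl DMEM/F12 or RPMI, 10% FBS) were held 24 hours at 37°C and 5% CO2 and then dosed for 72 hours at a final DMSO of typically 0.2%. Viability was taken from CellTiter-Glo 2.0 luminescence, scaled between blank-well and DMSO-well means. Curves were fitted as two-parameter logistic models with a non-linear mixed effects model, from which the single-agent IC50 was taken.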

Doxorubicin = compound: COc1cccc2c1C(=O)c1c(O)c3c(c(O)c1C2=O)C[C@@](O)(C(=O)CO)C[C@@H]3O[C@H]1C[C@H](N)[C@H](O)[C@H](C)O1 [Doxorubicin]; conditions: max 1 µM
Method in brief: as §1

Lapatinib = compound: CS(=O)(=O)CCNCc1ccc(-c2ccc3ncnc(Nc4ccc(OCc5cccc(F)c5)c(Cl)c4)c3c2)o1 [Lapatinib]; conditions: max 10 µM
Method in brief: as §1

SN-38 = compound: CCc1c2c(nc3ccc(O)cc13)-c1cc3c(c(=O)n1C2)COC(=O)[C@]3(O)CC [SN-38]; conditions: max 0.3 µM
Method in brief: as §1

AZD5153 = compound: COc1nnc2ccc(N3CCC(c4ccc(OCCN5CCN(C)C(=O)[C@H]5C)cc4)CC3)nn12 [AZD5153]; conditions: max 1 µM
Method in brief: as §1

Dasatinib = compound: CC1=C(C(=CC=C1)Cl)NC(=O)C2=CN=C(S2)NC3=CC(=NC(=N3)C)N4CCN(CC4)CCO [Dasatinib]; conditions: max 2 µM
Method in brief: as §1

Venetoclax = compound: CC1(C)CCC(CN2CCN(c3ccc(C(=O)NS(=O)(=O)c4ccc(NCC5CCOCC5)c([N+](=O)[O-])c4)c(Oc4cnc5[nH]ccc5c4)c3)CC2)=C(c2ccc(Cl)cc2)C1 [Venetoclax]; conditions: max 1 µM
Method in brief: as §1

Alisertib = compound: COc1cc(Nc2ncc3c(n2)-c2ccc(Cl)cc2C(c2c(F)cccc2OC)=NC3)ccc1C(=O)O [Alisertib]; conditions: max 10 µM
Method in brief: as §1

Selumetinib = compound: Cn1cnc2c(F)c(Nc3ccc(Br)cc3Cl)c(C(=O)NOCCO)cc21 [Selumetinib]; conditions: max 10 µM
Method in brief: as §1

AZD4320 = compound: CN(CC[C@H](CSC1=CC=CC=C1)NC2=C(C=C(C=C2)S(=O)(=O)NC(=O)C3=CC=C(C=C3)N4CCC(CC4)[C@H](C5=CC=CC=C5C6=CC=C(C=C6)Cl)O)S(=O)(=O)C(F)(F)F)CCO [AZD4320]; conditions: max 1 µM
Method in brief: as §1

MK-2206 = compound: NC1(c2ccc(-c3nc4ccn5c(=O)[nH]nc5c4cc3-c3ccccc3)cc2)CCC1 [MK-2206]; conditions: max 10 µM
Method in brief: as §1

AZD2811 = compound: CCN(CCO)CCCOc1ccc2c(Nc3cc(CC(=O)Nc4cccc(F)c4)[nH]n3)ncnc2c1 [AZD2811]; conditions: max 1 µM
Method in brief: as §1

AZD1775 = compound: C=CCn1c(=O)c2cnc(Nc3ccc(N4CCN(C)CC4)cc3)nc2n1-c1cccc(C(C)(C)O)n1 [AZD1775]; conditions: max 3 µM
Method in brief: as §1

SG3199 = compound: CC1=CN2[C@@H](C1)C=NC3=CC(=C(C=C3C2=O)OC)OCCCCCOC4=C(C=C5C(=C4)N=C[C@@H]6CC(=CN6C5=O)C)OC [SG3199]; conditions: max 0.001 µM
Method in brief: as §1

AZD7648 = compound: Cc1cc2ncnn2cc1Nc1ncc2c(n1)n(C1CCOCC1)c(=O)n2C [AZD7648]; conditions: max 10 µM
Method in brief: as §1

Crizotinib = compound: C[C@@H](Oc1cc(-c2cnn(C3CCNCC3)c2)cnc1N)c1c(Cl)ccc(F)c1Cl [Crizotinib]; conditions: max 10 µM
Method in brief: as §1

AZD6738 = compound: C[C@@H]1COCCN1C2=NC(=NC(=C2)C3(CC3)[S@](=N)(=O)C)C4=C5C=CNC5=NC=C4 [AZD6738]; conditions: max 10 µM
Method in brief: as §1

Taselisib = compound: Cc1nc(-c2cn3c(n2)-c2ccc(-c4cnn(C(C)(C)C(N)=O)c4)cc2OCC3)n(C(C)C)n1 [Taselisib]; conditions: max 10 µM
Method in brief: as §1

Palbociclib = compound: CC(=O)c1c(C)c2cnc(Nc3ccc(N4CCNCC4)cn3)nc2n(C2CCCC2)c1=O [Palbociclib]; conditions: max 10 µM
Method in brief: as §1

Olaparib = compound: O=C(c1cc(Cc2n[nH]c(=O)c3ccccc23)ccc1F)N1CCN(C(=O)C2CC2)CC1 [Olaparib]; conditions: max 10 µM
Method in brief: as §1

Capivasertib = compound: C1CN(CCC1(C(=O)N[C@@H](CCO)C2=CC=C(C=C2)Cl)N)C3=NC=NC4=C3C=CN4 [Capivasertib]; conditions: max 10 µM
Method in brief: as §1

Gefitinib = compound: COc1cc2ncnc(Nc3ccc(F)c(Cl)c3)c2cc1OCCCN1CCOCC1 [Gefitinib]; conditions: max 10 µM
Method in brief: as §1

Savolitinib = compound: C[C@@H](c1ccc2nccn2c1)n1nnc2ncc(-c3cnn(C)c3)nc21 [Savolitinib]; conditions: max 1 µM
Method in brief: as §1

AZD8186 = compound: C[C@@H](Nc1cc(F)cc(F)c1)c1cc(C(=O)N(C)C)cc2c(=O)cc(N3CCOCC3)oc12 [AZD8186]
Method in brief: as §1

Trametinib = compound: CC(=O)Nc1cccc(-n2c(=O)n(C3CC3)c(=O)c3c(Nc4ccc(I)cc4F)n(C)c(=O)c(C)c32)c1 [Trametinib]; conditions: max 1 µM
Method in brief: as §1

AZD1390 = compound: CC(C)n1c(=O)n(C)c2cnc3cc(F)c(-c4ccc(OCCCN5CCCCC5)nc4)cc3c21 [AZD1390]; conditions: max 0.3 µM
Method in brief: as §1

AZD5991 = compound: Cc1c2c(nn1C)CSCc1cc(n(C)n1)CSc1cc(c3ccccc3c1)OCCCc1c(C(=O)O)n(C)c3c-2c(Cl)ccc13 [AZD5991]; conditions: max 1 µM
Method in brief: as §1

AZD0156 = compound: CN(C)CCCOc1ccc(-c2ccc3ncc4c(c3c2)n(C2CCOCC2)c(=O)n4C)cn1 [AZD0156]; conditions: max 3 µM
Method in brief: as §1

[1] = compound: O=C(Nc1ccc2[nH]nc(-c3ccncc3)c2c1)[C@@H]1CCN(CC(=O)N2CCN(c3ccc(-c4ncccn4)cc3)CC2)C1; conditions: max 5 µM
Method in brief: as §1

AZD5363 = compound: C1CN(CCC1(C(=O)N[C@@H](CCO)C2=CC=C(C=C2)Cl)N)C3=NC=NC4=C3C=CN4 [AZD5363]; conditions: max 10 µM
Method in brief: as §1

Carboplatin = compound: C1CC(C1)(C(=O)[O-])C(=O)[O-].N.N.[Pt+2] [Carboplatin]; conditions: max 10 µM
Method in brief: as §1

Etoposide = compound: COc1cc([C@@H]2c3cc4c(cc3[C@@H](O[C@@H]3O[C@@H]5CO[C@@H](C)O[C@H]5[C@H](O)[C@H]3O)[C@H]3COC(=O)[C@H]23)OCO4)cc(OC)c1O [Etoposide]; conditions: max 10 µM
Method in brief: as §1

Gemcitabine = compound: Nc1ccn([C@@H]2O[C@H](CO)[C@@H](O)C2(F)F)c(=O)n1 [Gemcitabine]; conditions: max 0.3 µM
Method in brief: as §1

5-Fluorouracil = compound: O=c1[nH]cc(F)c(=O)[nH]1 [5-Fluorouracil]; conditions: max 20 µM
Method in brief: as §1

Paclitaxel = compound: CC(=O)O[C@H]1C(=O)[C@@]2(C)[C@H]([C@H](OC(=O)c3ccccc3)[C@]3(O)C[C@H](OC(=O)[C@H](O)[C@@H](NC(=O)c4ccccc4)c4ccccc4)C(C)=C1C3(C)C)[C@]1(OC(C)=O)CO[C@@H]1C[C@@H]2O [Paclitaxel]; conditions: max 3 µM
Method in brief: as §1

SRA737 = compound: N#Cc1cnc(Nc2cc(NC[C@H]3CNCCO3)c(C(F)(F)F)cn2)cn1 [SRA737]; conditions: max 10 µM
Method in brief: as §1

Measured: IC50, cell viability 72 h

NCI-H2591 (Mesothelioma)
> 3 µM: AZD1775 | AZD8186; max 3 µM | AZD0156
> 1 µM: Prexasertib | Doxorubicin | AZD5153 | Venetoclax | AZD4320 | AZD2811 | Savolitinib | Trametinib | AZD5991
> 0.001 µM: SG3199
> 0.3 µM: AZD1390
> 2 µM: Dasatinib
> 10 µM: Lapatinib | Alisertib | Selumetinib | MK-2206 | AZD7648 | Crizotinib | AZD6738 | Taselisib | Palbociclib | Olaparib | Capivasertib | Gefitinib
0.0717 µM: SN-38

OS-RC-2 (Kidney Carcinoma)
1.91 µM: AZD8186; max 3 µM
> 10 µM: Lapatinib | Alisertib | Selumetinib | AZD7648 | Crizotinib | AZD6738 | Taselisib | Palbociclib | Olaparib | Capivasertib | Gefitinib
> 2 µM: Dasatinib
> 0.3 µM: SN-38 | AZD1390
> 3 µM: AZD1775 | AZD0156
0.433 µM: Prexasertib
> 1 µM: Doxorubicin | AZD5153 | Venetoclax | AZD4320 | AZD2811 | Savolitinib | Trametinib | AZD5991
> 0.001 µM: SG3199

FU97 (Gastric Carcinoma)
> 0.3 µM: SN-38 | Gemcitabine | AZD1390
> 2 µM: Dasatinib
> 1 µM: Prexasertib | Doxorubicin | Venetoclax | AZD4320 | AZD2811 | Savolitinib | AZD5991
0.288 µM: AZD5153
> 10 µM: Lapatinib | Alisertib | Selumetinib | AZD5363 | MK-2206 | AZD7648 | Carboplatin | Crizotinib | Etoposide | AZD6738 | Taselisib | Palbociclib | Olaparib | Gefitinib | AZD8186; max 10 µM | SRA737
> 3 µM: AZD1775 | Paclitaxel | AZD0156
> 0.001 µM: SG3199
> 5 µM: [1]
> 20 µM: 5-Fluorouracil
